These results are taken from publication PMC7337056, “Structural and biochemical characterization of the pleckstrin homology domain of the RhoGEF P-Rex2 and its regulation by PIP3” (Journal of Structural Biology: X, 2018).

What all share (type): binding
The target in assay [1] is T1, P-Rex2 PH domain (Homo sapiens, UniProt Q70Z35).
T1 construct: gene PREX2; PH domain, residues 219-364 for assays (219-377 for crystal 6BNM); 10xHis-MBP tag removed with TEV; E. coli Rosetta (DE3) pLysS
T1 sequence (Q70Z35 219-364): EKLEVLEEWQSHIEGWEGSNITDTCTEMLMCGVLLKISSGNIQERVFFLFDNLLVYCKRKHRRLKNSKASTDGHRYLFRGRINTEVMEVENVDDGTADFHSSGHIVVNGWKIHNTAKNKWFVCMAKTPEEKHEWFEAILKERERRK
Nature of the assay: differential scanning fluorimetry (SYPRO orange). (In general: DSF heats the sample and reads unfolding from a dye or from intrinsic fluorescence.)

Assay [2] addresses T2, P-Rex2 PH domain (Homo sapiens, UniProt Q70Z35, K337A).
T2 construct: gene PREX2; PH domain, residues 219-364 for assays (219-377 for crystal 6BNM); 10xHis-MBP tag removed with TEV; E. coli Rosetta (DE3) pLysS
T2 sequence (Q70Z35 219-364 K337A): T1 sequence (Q70Z35 219-364) with K119A
The experiment in a line: differential scanning fluorimetry (SYPRO orange). The note with it: 50 mM HEPES pH 8, 150 mM NaCl, 2 mM DTT; 1 mM ligand.

In assay [3] the target is T3, P-Rex1 PH domain (Homo sapiens, UniProt Q8TCU6, K368A).
T3 construct: gene PREX1; PH domain, residues 245-408; 10xHis-MBP tag removed with TEV; E. coli Rosetta (DE3) pLysS
Nature of the assay: differential scanning fluorimetry (SYPRO orange). Particulars: 50 mM HEPES pH 8, 150 mM NaCl, 2 mM DTT; 1 mM ligand.

Assay [4] concerns the target T4, P-Rex2 PH domain (Homo sapiens, UniProt Q70Z35, K254A).
T4 construct: gene PREX2; PH domain, residues 219-364 for assays (219-377 for crystal 6BNM); 10xHis-MBP tag removed with TEV; E. coli Rosetta (DE3) pLysS
T4 sequence (Q70Z35 219-364 K254A): T1 sequence (Q70Z35 219-364) with K36A
The experiment in a line: differential scanning fluorimetry (SYPRO orange). Particulars: 50 mM HEPES pH 8, 150 mM NaCl, 2 mM DTT; 1 mM ligand.

The target of assay [5] is T1, P-Rex2 PH domain. The experiment in a line: isothermal titration calorimetry. The note with it: 20 mM HEPES pH 8, 150 mM NaCl, 25 °C. (Isothermal titration calorimetry measures the heat released or taken up as one component is titrated into another.)
Assay [6] deals with T5, P-Rex1 PH domain (Homo sapiens, UniProt Q8TCU6, K280A).
T5 construct: gene PREX1; PH domain, residues 245-408; 10xHis-MBP tag removed with TEV; E. coli Rosetta (DE3) pLysS
The experiment in a line: differential scanning fluorimetry (SYPRO orange). Particulars: 50 mM HEPES pH 8, 150 mM NaCl, 2 mM DTT; 1 mM ligand.

Broadly, the ΔTm is the shift of the melting midpoint relative to a reference. As usually defined, the Kd is the free concentration of one partner at which half of the binding sites on the other are occupied at equilibrium, for simple one-to-one binding. A low value points to a tighter complex.

Changes are numbered by the printed parent chain.

T5 sequence (Q8TCU6 245-408 K280A): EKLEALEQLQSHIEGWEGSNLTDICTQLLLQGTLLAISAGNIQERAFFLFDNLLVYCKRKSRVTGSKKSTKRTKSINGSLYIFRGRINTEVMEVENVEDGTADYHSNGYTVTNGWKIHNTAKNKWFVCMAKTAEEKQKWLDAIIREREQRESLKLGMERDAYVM
T3 sequence (Q8TCU6 245-408 K368A): as the sequence (Q8TCU6 245-408 K280A) above, with A36K, K124A counted along it

In the case of `O=P(O)(O)OC1[C@H](O)[C@H](OP(=O)(O)O)C(OP(=O)(O)O)[C@H](OP(=O)(O)O)[C@H]1O` (stereo partly drawn) [Ins(1,3,4,5)P4, D-myo-Inositol-1,3,4,5-tetraphosphate], the ΔTm at 1000 µM in assay [1] was 11 °C. For the same compound, the shift in melting temperature (ΔTm) at 1 mM in assay [2] is given as “mutation of any one of the PIP3-binding residues drastically reduces the temperature shift”; in assay [3], “P-Rex1 variants display the same trends in binding deficiency”; in assay [4], “mutation of any one of the PIP3-binding residues drastically reduces the temperature shift”; in assay [6] it was “P-Rex1 variants display the same trends in binding deficiency”. In addition, the dissociation constant (Kd) in assay [5] was 240 ± 140 nM.
